Test results: patent USRE48267E1, “Variants of C-type natriuretic peptide” (priority 2009, dated 2020)
Marks after values point to notes of the source that are not given here. One block for each compound: values may come before it. *1 amine or outer side, *2 acyl side, *3 side chain or, on linkers, in order; H or OH if unused. Where a SMILES comes first, the peptide text is derived from it. Bridges are numbered along the chain shown (N, C = ends). [ ]: non-standard residue; d: D form. The star is where a group is joined. CH3O(CH2CH2O)11CH2CH2CO = COCCOCCOCCOCCOCCOCCOCCOCCOCCOCCOCCOCCC(=O)*; X1 = O=C(C(CN[*:1])c1ccccc1)[*:2]

Assays:
Recombinant human NEP = Recombinant human NEP (Homo sapiens, UniProt P08473); assay: in vitro NEP cleavage assay (disappearance of non-cleaved CNP variant)
Chain of Recombinant human NEP (P08473 whole entry): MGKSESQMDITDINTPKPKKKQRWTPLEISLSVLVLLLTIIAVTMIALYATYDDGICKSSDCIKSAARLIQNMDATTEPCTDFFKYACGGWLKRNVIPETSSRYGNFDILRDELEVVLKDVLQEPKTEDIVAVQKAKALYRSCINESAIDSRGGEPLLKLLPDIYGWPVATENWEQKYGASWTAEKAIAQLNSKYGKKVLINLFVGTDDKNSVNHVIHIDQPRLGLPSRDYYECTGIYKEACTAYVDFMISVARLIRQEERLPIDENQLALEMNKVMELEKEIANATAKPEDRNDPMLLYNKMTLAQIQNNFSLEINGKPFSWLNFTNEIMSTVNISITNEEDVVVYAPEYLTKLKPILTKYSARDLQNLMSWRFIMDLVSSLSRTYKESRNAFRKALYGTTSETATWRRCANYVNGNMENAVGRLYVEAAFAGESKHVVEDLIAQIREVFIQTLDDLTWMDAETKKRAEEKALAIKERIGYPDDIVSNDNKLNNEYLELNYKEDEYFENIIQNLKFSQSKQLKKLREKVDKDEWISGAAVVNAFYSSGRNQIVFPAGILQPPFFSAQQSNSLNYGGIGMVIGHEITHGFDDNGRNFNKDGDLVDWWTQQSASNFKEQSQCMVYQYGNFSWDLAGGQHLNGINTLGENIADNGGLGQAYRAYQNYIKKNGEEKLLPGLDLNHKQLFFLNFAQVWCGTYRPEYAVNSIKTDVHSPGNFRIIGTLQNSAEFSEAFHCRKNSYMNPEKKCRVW
How it was run: (§1)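 Recombinant human NEP (1 ug/mL final) incubated with 100 uM CNP variant in 0.1 M Tris, pH 7, at 37° C for various times, then quenched with EDTA (10 mM final) and heat. Samples reduced and analysed by HPLC and mass spectrometry. Half-life derived from loss of intact variant over time.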

[1] = biological target: neutral endopeptidase (NEP) (Homo sapiens, UniProt P08473); assay: as above; conditions: human, pH 7
Chain of neutral endopeptidase (NEP) (P08473 whole entry): as above
How it was run: as §1

[2] = IgG assay (immunogenicity) in mice; conditions: mouse, in vivo
Procedure: An IgG assay was performed to assess whether an IgG immune response was triggered by 5 week exposure of achondroplastic FGFR3^ach mice to CNP22, CNP37 or PEO24-GANRR-CNP22(K4R) (“CNP27-PEO24”) (SEQ ID NO: 36). IgG is the most predominant immunoglobulin in mouse and human serum and is produced as part of the secondary immune response to an antigen. The IgG response to administration of the CNP peptides was determined as follows. 96-well plates were coated with 100 ng/mL CNP22, CNP37 or PEO24-GANRR-CNP22(K4R) (SEQ ID NO: 36) in BupH PBS buffer (Pierce/Thermo, Cat. No. 28372, Rockford, Ill.). After overnight incubation, plates were blocked with Casein-PBS blocking buffer (Pierce/Thermo, Cat. No. 37528) for two hours at room temperature with shaking at 300 rpm. After washing with wash buffer (1×PBS with 0.05% Tween), diluted serum samples from a terminal bleed (diluted 1:25) were added to the plate. Positive and negative controls were also loaded onto the plate. Positive control was 1:25 diluted serum (pooled from 6 individual FVB mice) with anti-CNP22 antibody added (Bachem rabbit anti-CNP22 IgG, Cat. No. T-4222) at 1:1000 dilution. Negative control was the diluted pooled serum. After two hours of incubation, the plates were washed and secondary antibody diluted in blocking buffer was added to the wells. For the mouse serum samples, anti-mouse IgG Fcγ (peroxidase-conjugated affinipure goat anti-mouse IgG, Fcγ fragment, Cat. No. 115-035-071, Jackson Immunoresearch, West Grove, Pa.) was added at a 1:10,000 dilution. For the positive and negative controls, anti-rabbit IgG-HRP (Santa Cruz Biotechnology, Cat. No. SC-2004, Santa Cruz, Calif.) was added to blocking buffer. After two hours of incubation at room temperature with shaking at 300 rpm, plates were washed with wash buffer. 100 uL of TMB (One-step TMB, Pierce/Thermo, Cat. No. 34022) was added to all wells. Plates were incubated at room temperature for 15 minutes with shaking at 300 rpm. Colorimetric reactions were stopped by the addition of 100 uL of 2 N H2SO4. Plates were read at 450 nm (Spectramax, Molecular Devices, Sunnyvale, Calif.) and data was analyzed using SoftMax Pro software (Molecular Devices).
The immunogenic response of wild-type mice administered G-CNP37, PEO12-GANRR-CNP22(K4R) (SEQ ID NO: 36) or Pro-Gly-CNP37, as measured by an increase in serum IgG level, was also assessed by examining terminal bleed serum samples as described above.

[3] = pharmacokinetics in rats (plasma CNP immunoreactivity by RIA); type: in vivo, rat; conditions: male, rat, plasma, iv, i.v. 20 nmol/kg
Procedure: Recombinant wild-type CNP22, CNP37 and PEO24-GANRR-CNP22 […]) (SEQ ID NO: 36) were evaluated. […] Standard and QC samples were prepared. […] Plasma CNP immunoreactivity was employed for pharmacokinetics (PK) analysis. PK analysis was performed using WINNONLIN® Professional (Pharsight Corporation).

wild-type FVB mice = assay: efficacy of CNP variants on bone growth in wild-type mice; type: in vivo, mouse; conditions: 200 nmol/kg s.c. once daily for 5 weeks
Procedure: The in vivo effects of CNP variants on bone growth were assessed in wild-type mice. Three week old FVB wild-type male mice received daily subcutaneous (s.c.) injection of either vehicle, G-CNP37 (200 nmol/kg) or […]”) (SEQ ID NO: 36) (200 nmol/kg) for 5 weeks. Body weight was measured at least once weekly. Tail length was measured at least once weekly using digital caliper readings, and body length (naso-anal length), bone length (tibia, femur, ulna and humerus), skull length (anterior to posterior cranial segment) and lumbar vertebrae 5 (LV5) length were measured after 5 weeks of treatment using a caliper. X-rays were taken at baseline and after 5 weeks of treatment. […] In another study, various dosing regimens of Pro-Gly-CNP37 were administered for nine weeks followed by one week of recovery. Wild-type FVB mice were dosed s.c. with: • (1) vehicle daily for nine weeks, followed by one week of recovery; • (2) 20 nmol/kg Pro -Gly-CNP37 daily for one week, followed by three doses per week for eight weeks and one week of recovery; • (3) 20 nmol/kg Pro-Gly-CNP37 on alternating weeks; or • (4) 5 nmol/kg Pro-Gly-CNP37 daily for nine weeks followed by one week of recovery.

[4] = biological target: NPR-B (natriuretic peptide receptor B), murine, expressed endogenously on NIH3T3 cells (murine) (UniProt Q6VVW5); assay: cell-based or functional assay
Chain of NPR-B (natriuretic peptide receptor B), murine, expressed endogenously on NIH3T3 cells (murine) (Q6VVW5 17-1047): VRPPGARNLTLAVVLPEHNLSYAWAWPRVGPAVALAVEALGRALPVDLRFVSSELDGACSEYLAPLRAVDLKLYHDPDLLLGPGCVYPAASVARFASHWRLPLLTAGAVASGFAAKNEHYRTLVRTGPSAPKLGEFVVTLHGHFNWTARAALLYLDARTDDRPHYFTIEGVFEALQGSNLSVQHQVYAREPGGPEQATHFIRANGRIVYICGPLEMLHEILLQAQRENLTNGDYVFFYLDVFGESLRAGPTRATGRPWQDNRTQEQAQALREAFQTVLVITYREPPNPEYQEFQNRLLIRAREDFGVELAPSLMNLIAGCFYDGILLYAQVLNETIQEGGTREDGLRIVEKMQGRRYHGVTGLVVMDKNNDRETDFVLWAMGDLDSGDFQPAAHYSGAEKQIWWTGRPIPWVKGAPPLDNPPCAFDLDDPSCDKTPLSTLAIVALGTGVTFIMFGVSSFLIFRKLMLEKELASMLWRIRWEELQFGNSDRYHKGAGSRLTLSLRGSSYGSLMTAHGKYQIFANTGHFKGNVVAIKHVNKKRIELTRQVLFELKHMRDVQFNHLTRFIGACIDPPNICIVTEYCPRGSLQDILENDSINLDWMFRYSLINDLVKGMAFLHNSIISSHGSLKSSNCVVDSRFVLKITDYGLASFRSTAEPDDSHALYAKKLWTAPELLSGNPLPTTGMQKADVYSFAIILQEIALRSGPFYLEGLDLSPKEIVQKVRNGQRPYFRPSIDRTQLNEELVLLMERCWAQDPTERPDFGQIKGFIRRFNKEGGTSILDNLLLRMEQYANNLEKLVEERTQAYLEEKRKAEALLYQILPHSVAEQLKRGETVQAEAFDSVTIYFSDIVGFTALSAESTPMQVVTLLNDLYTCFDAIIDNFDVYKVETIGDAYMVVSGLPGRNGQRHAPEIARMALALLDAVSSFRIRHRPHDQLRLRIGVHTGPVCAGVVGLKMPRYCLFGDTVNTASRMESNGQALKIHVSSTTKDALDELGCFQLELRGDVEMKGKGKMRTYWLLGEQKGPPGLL

resistance to cleavage at the Cys6-Phe7 bond relative to wtCNP22 (Recombinant human NEP): resistance or improved resistance
half-life at 100 uM ([1]; recombinant human NEP (neutral endopeptidase)): 1.33 h
Compound: CC[C@H](C)[C@@H]1NC(=O)[C@H](CCCNC(=N)N)NC(=O)[C@H](CC(=O)O)NC(=O)[C@H](CC(C)C)NC(=O)[C@H](CCCCN)NC(=O)[C@H](CC(C)C)NC(=O)CNC(=O)C(c2ccccc2)CNC(=O)[C@@H](NC(=O)CNC(=O)[C@H](CCCCN)NC(=O)[C@H](CO)NC(=O)[C@H](CC(C)C)NC(=O)CN)CSSC[C@@H](C(=O)O)NC(=O)CNC(=O)[C@H](CC(C)C)NC(=O)CNC(=O)[C@H](CO)NC(=O)[C@H](CCSC)NC(=O)[C@H](CO)NC(=O)CNC1=O (stereo partly shown) [Analog H] (H-GLSKGC[X1]GLKLDRIGSMSGLGC-OH; disulfide 6-22)

resistance to NEP cleavage (in words) (Recombinant human NEP): completely resistant to NEP cleavage
half-life at 100 uM [1]: > 2.67 h
IgG immune response [2]: one out of six
Compound: CC[C@H](C)[C@@H]1NC(=O)[C@H](CCCNC(=N)N)NC(=O)[C@H](CC(=O)O)NC(=O)[C@H](CC(C)C)NC(=O)[C@H](CCCCN)NC(=O)[C@H](CC(C)C)NC(=O)CNC(=O)[C@H](Cc2ccccc2)NC(=O)[C@@H](NC(=O)CNC(=O)[C@H](CCCCN)NC(=O)[C@H](CO)NC(=O)[C@H](CC(C)C)NC(=O)CNC(=O)[C@H](CCCCN)NC(=O)[C@H](CCCCN)NC(=O)[C@H](CC(N)=O)NC(=O)[C@H](C)NC(=O)CNC(=O)[C@H](CCCCN)NC(=O)[C@H](Cc2ccc(O)cc2)NC(=O)[C@H](CCCCN)NC(=O)[C@H](CCCNC(=N)N)NC(=O)[C@H](C)NC(=O)[C@H](CC(N)=O)NC(=O)[C@@H]2CCCN2C(=O)[C@H](Cc2c[nH]cn2)NC(=O)[C@H](CCC(=O)O)NC(=O)[C@H](CCC(N)=O)NC(=O)CN)CSSC[C@@H](C(=O)O)NC(=O)CNC(=O)[C@H](CC(C)C)NC(=O)CNC(=O)[C@H](CO)NC(=O)[C@H](CCSC)NC(=O)[C@H](CO)NC(=O)CNC1=O [Analog DB]

AUC ([3]; read-out: area under the curve, AUC (converted)): 0.026 µM·h
half-life ([3]; read-out: half-life, T1/2): 0.825 h
Compound: CC[C@H](C)[C@@H]1NC(=O)[C@H](CCCNC(=N)N)NC(=O)[C@H](CC(=O)O)NC(=O)[C@H](CC(C)C)NC(=O)[C@H](CCCCN)NC(=O)[C@H](CC(C)C)NC(=O)CNC(=O)[C@H](Cc2ccccc2)NC(=O)[C@@H](NC(=O)CNC(=O)[C@H](CCCCN)NC(=O)[C@H](CO)NC(=O)[C@H](CC(C)C)NC(=O)CNC(=O)[C@H](CCCCN)NC(=O)[C@H](CCCCN)NC(=O)[C@H](CC(N)=O)NC(=O)[C@H](C)NC(=O)CNC(=O)[C@H](CCCCN)NC(=O)[C@H](Cc2ccc(O)cc2)NC(=O)[C@H](CCCCN)NC(=O)[C@H](CCCNC(=N)N)NC(=O)[C@H](C)NC(=O)[C@H](CC(N)=O)NC(=O)[C@@H]2CCCN2C(=O)[C@H](Cc2c[nH]cn2)NC(=O)[C@H](CCC(=O)O)NC(=O)[C@@H](N)CCC(N)=O)CSSC[C@@H](C(=O)O)NC(=O)CNC(=O)[C@H](CC(C)C)NC(=O)CNC(=O)[C@H](CO)NC(=O)[C@H](CCSC)NC(=O)[C@H](CO)NC(=O)CNC1=O [Analog BL]

Compound: CC[C@H](C)[C@@H]1NC(=O)[C@H](CCCNC(=N)N)NC(=O)[C@H](CC(=O)O)NC(=O)[C@H](CC(C)C)NC(=O)[C@H](CCCCN)NC(=O)[C@H](CC(C)C)NC(=O)CNC(=O)[C@H](Cc2ccccc2)NC(=O)[C@@H](NC(=O)CNC(=O)[C@H](CCCNC(=N)N)NC(=O)[C@H](CO)NC(=O)[C@H](CC(C)C)NC(=O)CNC(=O)[C@H](CCCNC(=N)N)NC(=O)[C@H](CCCNC(=N)N)NC(=O)[C@H](CC(N)=O)NC(=O)[C@H](C)NC(=O)CNC(=O)CCOCCOCCOCCOCCOCCOCCOCCOCCOCCOCCOCCOC)CSSC[C@@H](C(=O)O)NC(=O)CNC(=O)[C@H](CC(C)C)NC(=O)CNC(=O)[C@H](CO)NC(=O)[C@H](CCSC)NC(=O)[C@H](CO)NC(=O)CNC1=O [PEO12-GANRR-CNP22(K4R)] ({CH3O(CH2CH2O)11CH2CH2CO}-GANRRGLSRGCFGLKLDRIGSMSGLGC-OH; disulfide 11-27; C-terminus assumed)
resistance to NEP cleavage (in words) (Recombinant human NEP): much greater stability to NEP degradation compared to wtCNP22
Anterior to Posterior (Skull) length, relative to vehicle = 100% (wild-type FVB mice): 101%
Femur length, relative to vehicle = 100% (wild-type FVB mice): 102%*
Humerus length, relative to vehicle = 100% (wild-type FVB mice): 102%*
LV5 length, relative to vehicle = 100% (wild-type FVB mice): 103%
Naso-Anal (body) length, relative to vehicle = 100% (wild-type FVB mice): 104%**
Tail length, relative to vehicle = 100% (wild-type FVB mice): 101%
Tibia length, relative to vehicle = 100% (wild-type FVB mice): 100%
Ulna length, relative to vehicle = 100% (wild-type FVB mice): 96%*
IgG immune response [2]: None of the wild-type mice

cGMP response rel. to 1 uM CNP22; 10 nM peptide, NIH3T3 cells (rel. to 1 uM CNP22 (100)) [4]: 10
cGMP response rel. to 1 uM CNP22; 1 uM peptide, NIH3T3 cells (rel. to 1 uM CNP22 (100)) [4]: 23
Compound: ANP (atrial natriuretic peptide) (from UniProt P01160 124-151)

Compound: CC[C@H](C)[C@@H]1NC(=O)[C@H](CCCNC(=N)N)NC(=O)[C@H](CC(=O)O)NC(=O)[C@H](CC(C)C)NC(=O)[C@H](CCCCN)NC(=O)[C@H](CC(C)C)NC(=O)CNC(=O)[C@H](Cc2ccccc2)NC[C@@H](NC(=O)CNC(=O)[C@H](CCCCN)NC(=O)[C@H](CO)NC(=O)[C@H](CC(C)C)NC(=O)CN)CSSC[C@@H](C(=O)O)NC(=O)CNC(=O)[C@H](CC(C)C)NC(=O)CNC(=O)[C@H](CO)NC(=O)[C@H](CCSC)NC(=O)[C@H](CO)NC(=O)CNC1=O [Analog A]
resistance to cleavage at the Cys6-Phe7 bond relative to wtCNP22 (Recombinant human NEP): resistance or improved resistance
half-life at 100 uM [1]: 0.917 h

Compound: CC[C@H](C)[C@@H]1NC(=O)[C@H](CCCNC(=N)N)NC(=O)[C@H](CC(=O)O)NC(=O)[C@H](CC(C)C)NC(=O)[C@H](CCCCN)NC(=O)[C@H](CC(C)C)NC(=O)CNC(=O)[C@H](Cc2ccccc2)NC(=O)[C@@H](NC(=O)CNC(=O)[C@H](CCCCN)NC(=O)[C@H](CO)NC(=O)[C@H](CC(C)C)NC(=O)CNC(=O)CCCC(=O)NCCOCCOCCOCCOCCC(=O)NC(COCCC(=O)NCCOCCOCCOCCOCCOCCOCCOCCOCCOCCOCCOC)(COCCC(=O)NCCOCCOCCOCCOCCOCCOCCOCCOCCOCCOCCOC)COCCC(=O)NCCOCCOCCOCCOCCOCCOCCOCCOCCOCCOCCOC)CSSC[C@@H](C(=O)O)NC(=O)CNC(=O)[C@H](CC(C)C)NC(=O)CNC(=O)[C@H](CO)NC(=O)[C@H](CCSC)NC(=O)[C@H](CO)NC(=O)CNC1=O [PEO4-(PEO12)3(branched)-CNP22]
half-life at 100 uM [1]: > 2.67 h
